Test results from patent US20210085739A1, “ANTIPLATELET ACTIVITY OF THE ACANTHUS MOLLIS SEEDS' TOTAL EXTRACT AND ITS CONSTITUENTS” (priority 2017, published 2021).

Key:
[1] = tested on: platelet aggregation induced by AA; assay: Light Transmittance Aggregometry in human PRP, agonist arachidonic acid (AA; 0.5 mM); assay type: cell-based; conditions: for inhibition of AA-induced platelet aggregation (FIG. 5A, 6A): each agent 1 mg/mL, combinations at mass ratios 1:1 or 1:1:1
Procedure: (§1) The effect of methanol extract on platelet aggregation in vitro was extensively studied in human Platelet Rich Plasma (PRP) from healthy volunteers, using Light Transmittance Aggregometry (LTA), as we previously described (Mitsios J V, et al. Eur J Biochem. 2004; 271:855-862). PRP was activated by arachidonic acid (AA; 0.5 mM), Thrombin Receptor Activating Peptide-6 (TRAP-6; 10 μM) and ADP (10 μM), as agonists. Samples were prepared by evaporating the methanol under nitrogen and then by dissolving the residue in DMSO. The maximal aggregation, achieved within 4 min after the addition of each agonist, was determined and expressed as a percentage of 100% light transmission calibrated for each specimen (% maximal aggregation). The inhibitory efficacy of the seeds extract expressed as IC50 value (half maximal inhibitory concentration). All values derived from at least three independent experiments performed for each platelet agonist, using 3 different methanol extract preparations (prepared as described above) and are expressed as the mean±standard deviation (S.D.). The final concentration of DMSO in each assay was 0.01% by volume.
(§2) Each fraction was dissolved in DMSO and used at a final concentration of 1 mg/mL. Standards of Verbascoside and Isoverbascoside were also dissolved in DMSO and used at a final concentration of 1 mg/mL. […] This concentration was not much lower to that of the total extract 0.25 mg/mL (as it would expected, since we used a purified fraction from the total extract that expresses the inhibitory activity towards AA-induced platelet aggregation). Therefore, we used a combination of fraction 1 with fraction 2 or 3 (at mass ratios of 1:1) or a combination of the 3 fractions (at mass ratios of 1:1:1).

[2] = tested on: platelet aggregation induced by TRAP-6; assay: Light Transmittance Aggregometry in human PRP, agonist TRAP-6 (10 μM); assay type: cell-based; conditions: each agent 1 mg/mL, combinations at mass ratios 1:1 or 1:1:1
Procedure: as §1, §2
Next we evaluated the biological effect of the three fractions towards platelet aggregation induced by TRAP-6.

Row | Compound | inhibition of AA-induced platelet aggregation (FIG. 5A, 6A) [1] | inhibition of TRAP-6-induced platelet aggregation (FIG. 5B, 6B) [2] | threshold concentration (the lower concentration that induces the maximum inhibitory effect), AA-induced platelet aggregation [1] [mg/mL]
1 | C[C@@H]1O[C@@H](O[C@@H]2[C@@H](O)[C@H](OCCc3ccc(O)c(O)c3)O[C@H](COC(=O)/C=C/c3ccc(O)c(O)c3)[C@H]2O)[C@H](O)[C@H](O)[C@H]1O [Isoverbascoside] | do not inhibit platelet aggregation | inhibited platelet aggregation | –
2 | C[C@@H]1O[C@@H](O[C@@H]2[C@@H](O)[C@H](OCCc3ccc(O)c(O)c3)O[C@H](CO)[C@H]2OC(=O)/C=C/c2ccc(O)c(O)c2)[C@H](O)[C@H](O)[C@H]1O [Verbascoside] | do not inhibit platelet aggregation | only Isoverbascoside inhibited platelet aggregation | –
3 | O=C1C(O[C@@H]2O[C@H](CO)[C@@H](O)[C@H](O)[C@H]2O)Oc2ccccc2N1O (stereo partly drawn) [fraction 1, 2-O-β-D-glucopyranosyl-4-hydroxy-1,4-benzoxazin-3-one] | inhibited platelet aggregation | no inhibitory activity | 0.2
